Assay: Pharmacokinetics assay in rats after intragastrical administration
Type: in vivo, Sprague-Dawley (SD) rats
Settings: intragastric, 2 mg/kg
Excerpt: Test Example 3. Pharmacokinetics Assay of the Compounds of the Present Invention
Rats were used as test animals. […] The pharmacokinetic behavior of the compounds of the present invention was studied and evaluated in rats.
56 healthy adult Sprague-Dawley (SD) rats, half male and half female, were purchased from SINO-BRITSH SIPPR/BK LAB. ANIMAL LTD., CO, with License No.: SCXK (Shanghai) 2008-0016.
2.3 Preparation of the Test Compounds
A certain amount of the test compound was weighed, and added with 5% by volume of DMSO, 5% by volume of Tween 80 and 90% normal saline to prepare a 0.2 mg/mL colorless, clear and transparent solution.
After an overnight fast, SD rats were intragastrically administered at a dose of 2.0 mg/kg and an administration volume of 10.0 mL/kg.
Example 111, Example 114, Example 160. Example 171 and Comparative Example 1. Blood (0.2 mL) was taken from the orbital sinus before administration and at 0.5, 1.0, 2.0, 4.0, 6.0, 8.0, 11.0 and 24.0 hours after administration. […]
The content of the test compound in the plasma of rats after intragastric administration of different concentrations of the drug was determined: 25 μL of rat plasma at each time after administration was taken and added with 30 μL (100 ng/mL) of the internal standard solution of camptothecin and 200 μL of acetonitrile, shaken vertically for 5 minutes, and centrifuged for 10 minutes (4000 rpm). […]

Structure (SMILES): COc1cn([C@@H](Cc2cccnc2)C(=O)Nc2ccc(C(=O)O)cc2)c(=O)cc1-c1cc(Cl)ccc1C(C)=O [Example 84, (S)-4-(2-(4-(2-acetyl-5-chlorophenyl)-5-methoxy-2-oxopyridin-1(2H)-yl)-3-(pyridin-3-yl)propanamido)benzoic acid]
- AUC difference versus Comparative Example 1: 7.5 times
- Cmax difference versus Comparative Example 1: 6.9 times

From US11084808B2, “Oxopicolinamide derivative, preparation method therefor and pharmaceutical use thereof” (Jiangsu Hengrui Medicine Co., Ltd., priority 2016, dated 2021)
